Legend:
[1] = molecular target: Recombinant human c-KIT kinase (Homo sapiens (Human), UniProt P10721); assay: c-KIT kinase chemiluminescence assay (ADP-Glo); format: biochemical; details: ATP 50 μM
Procedure, shortened: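 ADP formed by c-KIT on polyEY over 2 h at RT (after 30 min enzyme preincubation; Tris pH 7.5, MgCl2, BSA, DTT buffer) was detected by ADP-Glo luminescence. IC50 and Hill slope were fitted to control-normalized activity across compound concentrations.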

[2] = tested on: M-07e cells; assay: M-07e cellular assay (SCF-mediated cell proliferation); format: cell-based; details: Homo sapiens, 72 hours, CellTiter Glo
Protocol: M-07e cells (Creative Bioarray, CSC-C0249) which endogenously express human c-KIT were used to evaluate the effect of compounds on stem cell factor (SCF)-mediated cell proliferation. M-07e cells were cultured in growth media (RPMI+10% FBS+1% penicillin/streptomycin+10 ng/mL GM-CSF) at 5E5-1.5E6 cells/mL, replenishing media every 3-4 days. 1.5E4 cells were seeded per well in 384 well tissue culture treated plates in 20 μL assay media (RPMI+[…]+1% penicillin/streptomycin) without growth factor stimulation and incubated at 37° C. in a CO2 humidity-controlled incubator. Twenty-four hours later, three-fold serially diluted test compounds in media containing SCF (at the previously determined EC90) were added to the plated M-07e cells and incubated for an additional 72 hours. Cell viability was determined by adding 25 μL CellTiter Glo (Promega) to the cells and the luminescence was measured using a Perkin Elmer Envision plate reader. The EC50 was determined using GraphPad Prism. Percent cell growth was determined after normalizing the curve to the mean RLU high control (no compound control wells) at 100% and the mean RLU low control (no SCF control wells) at 0%.

Sequence of Recombinant human c-KIT kinase (P10721 26-976): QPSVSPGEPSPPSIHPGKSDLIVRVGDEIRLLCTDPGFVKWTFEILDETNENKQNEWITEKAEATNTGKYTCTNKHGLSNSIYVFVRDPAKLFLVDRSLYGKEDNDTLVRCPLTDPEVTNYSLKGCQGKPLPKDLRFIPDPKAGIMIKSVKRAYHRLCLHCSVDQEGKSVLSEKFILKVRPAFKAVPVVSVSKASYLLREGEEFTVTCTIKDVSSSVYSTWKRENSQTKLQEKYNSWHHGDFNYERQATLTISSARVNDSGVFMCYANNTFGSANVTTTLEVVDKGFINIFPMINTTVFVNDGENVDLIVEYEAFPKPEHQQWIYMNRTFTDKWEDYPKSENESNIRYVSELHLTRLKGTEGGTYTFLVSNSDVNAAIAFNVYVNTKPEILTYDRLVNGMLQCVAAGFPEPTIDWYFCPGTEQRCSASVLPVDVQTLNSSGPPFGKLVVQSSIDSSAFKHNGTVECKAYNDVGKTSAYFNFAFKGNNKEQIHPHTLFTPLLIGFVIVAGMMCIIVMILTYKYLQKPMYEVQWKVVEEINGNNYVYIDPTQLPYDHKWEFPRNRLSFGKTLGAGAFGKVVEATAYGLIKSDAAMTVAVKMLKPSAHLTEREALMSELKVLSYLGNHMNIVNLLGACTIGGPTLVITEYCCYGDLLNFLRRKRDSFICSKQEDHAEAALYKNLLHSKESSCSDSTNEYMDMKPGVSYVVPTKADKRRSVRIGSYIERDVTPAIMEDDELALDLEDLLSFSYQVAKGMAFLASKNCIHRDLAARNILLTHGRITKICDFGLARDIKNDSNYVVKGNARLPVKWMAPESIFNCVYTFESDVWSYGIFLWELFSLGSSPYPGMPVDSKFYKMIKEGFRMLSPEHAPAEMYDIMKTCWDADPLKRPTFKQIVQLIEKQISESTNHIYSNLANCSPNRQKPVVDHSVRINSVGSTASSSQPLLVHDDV

Structure (SMILES) | IC50 [1] | EC50 [2]
C=CCC1c2ccccc2-c2ncc(C(=O)Nc3cc(-c4noc([C@H]5C[C@@H]5F)n4)ccc3C)n21 (some centres unmarked) [Example 103] | 100 to 1000 nM | 100 to 1000 nM
Cc1ccc(-c2noc([C@H]3C[C@@H]3F)n2)cc1NC(=O)c1cnc2n1C(Cc1ccccc1)c1ccccc1-2 (some centres unmarked) [Example 104] | > 1000 nM | > 1000 nM
Cc1ccc(-c2noc([C@H]3C[C@@H]3F)n2)cc1NC(=O)c1cnc2n1C(C)(C)c1ccccc1-2 [Example 105] | 100 to 1000 nM | 100 to 1000 nM
C#Cc1ccn2ncc(C(=O)Nc3cc(-c4noc([C@H]5C[C@@H]5F)n4)ccc3C)c2c1 [Example 108] | < 100 nM | < 100 nM
Cc1ccc(-c2noc([C@H]3C[C@@H]3F)n2)cc1NC(=O)c1cnn2cc(-c3cn(CCO)nn3)ccc12 [Example 109] | < 100 nM | < 100 nM
Cc1ccc(-c2noc([C@H]3C[C@@H]3F)n2)cc1NC(=O)c1cnn2ccc(-c3cn(CCO)nn3)cc12 [Example 110] | 100 to 1000 nM | < 100 nM
Cc1ccc(-c2noc([C@H]3C[C@@H]3F)n2)cc1NC(=O)c1cnn2ccc(-c3cn(C(F)F)nn3)cc12 [Example 111] | 100 to 1000 nM | < 100 nM
Cc1ccc(-c2noc([C@H]3C[C@@H]3F)n2)cc1NC(=O)c1cnn2cc(-c3cn(CC(F)(F)F)nn3)ccc12 [Example 112] | < 100 nM | < 100 nM
Cc1ccc(-c2noc([C@H]3C[C@@H]3F)n2)cc1NC(=O)c1cnn2cc(-c3cn(C(F)(F)F)nn3)ccc12 [Example 113] | < 100 nM | < 100 nM
Cc1ccc(-c2noc([C@H]3C[C@@H]3F)n2)cc1NC(=O)c1cnn2cc(-c3cn(C4CC4)nn3)ccc12 [Example 114] | < 100 nM | < 100 nM
Cc1ccc(-c2noc([C@H]3C[C@@H]3F)n2)cc1NC(=O)c1cnn2cc(-c3cn(C4CC(F)(F)C4)nn3)ccc12 [Example 115] | < 100 nM | < 100 nM
COCCn1cc(-c2ccc3c(C(=O)Nc4cc(-c5noc([C@H]6C[C@@H]6F)n5)ccc4C)cnn3c2)nn1 [Example 116] | < 100 nM | < 100 nM
Cc1ccc(-c2noc([C@H]3C[C@@H]3F)n2)cc1NC(=O)c1cnn2cc(-c3cn(C[C@H](C)O)nn3)ccc12 [Example 117] | < 100 nM | < 100 nM
Cc1ccc(-c2noc([C@H]3C[C@@H]3F)n2)cc1NC(=O)c1cnn2cc(-c3cn(CC(C)(C)O)nn3)ccc12 [Example 118] | < 100 nM | < 100 nM
Cc1ccc(-c2noc([C@H]3C[C@@H]3F)n2)cc1NC(=O)c1cnn2cc(-c3cn(CC4(C)COC4)nn3)ccc12 [Example 119] | < 100 nM | < 100 nM
Cc1ccc(-c2noc([C@H]3C[C@@H]3F)n2)cc1NC(=O)c1cnn2cc(-c3cnnn3CCO)ccc12 [Example 120] | 100 to 1000 nM | 100 to 1000 nM
Cc1ccc(-c2noc([C@H]3C[C@@H]3F)n2)cc1NC(=O)c1cnn2cc(-c3cnnn3CC(F)(F)F)ccc12 [Example 121] | > 1000 nM | > 1000 nM
Cc1ccc(-c2noc([C@H]3C[C@@H]3F)n2)cc1NC(=O)c1cnn2ccc(-c3cn(CC(C)(C)O)nn3)cc12 [Example 122] | < 100 nM | < 100 nM
Cc1ccc(-c2noc([C@H]3C[C@@H]3F)n2)cc1NC(=O)c1cnn2cc(-c3cn(C45CC(C4)C5)nn3)ccc12 [Example 123] | 100 to 1000 nM | < 100 nM
Cc1ccc(-c2noc([C@H]3C[C@@H]3F)n2)cc1NC(=O)c1cnn2ccc(-c3cn(C45CC(F)(C4)C5)nn3)cc12 [Example 124] | < 100 nM | < 100 nM
Cc1ccc(-c2noc([C@H]3C[C@@H]3F)n2)cc1NC(=O)c1cnn2cc(-c3cn(C45CC(F)(C4)C5)nn3)ccc12 [Example 125] | 100 to 1000 nM | < 100 nM
Cc1ccc(-c2noc([C@H]3C[C@@H]3F)n2)cc1NC(=O)c1cnn2ccc(-c3cn(C45CC(C(F)(F)F)(C4)C5)nn3)cc12 [Example 126] | < 100 nM | < 100 nM
Cc1ccc(-c2noc([C@H]3C[C@@H]3F)n2)cc1NC(=O)c1cnn2ccc(C#N)cc12 [Example 127] | 100 to 1000 nM | 100 to 1000 nM
Cc1ccc(-c2noc([C@H]3C[C@@H]3F)n2)cc1NC(=O)c1cnn2cc(C#N)ccc12 [Example 128] | > 1000 nM | 100 to 1000 nM
Cc1ccc(-c2noc([C@H]3C[C@@H]3F)n2)cc1NC(=O)c1cnn2ccc(-c3nn[nH]n3)cc12 [Example 129] | 100 to 1000 nM | > 1000 nM

From US20250059174A1, “Pharmaceutical Compounds and Compositions as C-Kit Kinase Inhibitors” (Enanta Pharmaceuticals, Inc., priority 2023, published 2025)
